The values that follow come from ChEMBL document CHEMBL4376853, “Synthesis and structure-activity relationship studies of α-naphthoflavone derivatives as CYP1B1 inhibitors” (Eur J Med Chem, 2020).

Bounds are passed on as bounds.

The target of assay [1] is T1, Cytochrome P450 1B1 (Homo sapiens, UniProt Q16678).
T1 sequence (Q16678 whole entry): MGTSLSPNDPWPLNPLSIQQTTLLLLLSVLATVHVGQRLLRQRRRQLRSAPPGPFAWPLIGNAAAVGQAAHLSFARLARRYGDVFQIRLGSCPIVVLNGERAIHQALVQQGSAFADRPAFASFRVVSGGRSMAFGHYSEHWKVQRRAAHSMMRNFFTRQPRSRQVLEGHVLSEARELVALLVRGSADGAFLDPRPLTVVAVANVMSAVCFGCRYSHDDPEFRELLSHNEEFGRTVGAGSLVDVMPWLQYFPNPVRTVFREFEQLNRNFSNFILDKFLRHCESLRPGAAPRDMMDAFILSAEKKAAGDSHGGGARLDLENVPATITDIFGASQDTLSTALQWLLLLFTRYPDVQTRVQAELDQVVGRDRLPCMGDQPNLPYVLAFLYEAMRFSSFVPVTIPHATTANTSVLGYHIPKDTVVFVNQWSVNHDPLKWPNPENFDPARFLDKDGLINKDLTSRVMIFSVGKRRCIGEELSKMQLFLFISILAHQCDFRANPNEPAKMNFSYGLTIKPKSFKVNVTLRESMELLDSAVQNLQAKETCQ
Nature of the assay: Inhibition of human recombinant CYP1B1 using 7-ethoxyresorufin as substrate in presence of glucose-6-phosphate, glucose-6-phosphate dehydrogenase and NADPH-generating system incubated for 35 mins by fluorometry.

Assay [2] addresses T2, Cytochrome P450 1A1 (Homo sapiens, UniProt P04798).
T2 sequence (P04798 whole entry): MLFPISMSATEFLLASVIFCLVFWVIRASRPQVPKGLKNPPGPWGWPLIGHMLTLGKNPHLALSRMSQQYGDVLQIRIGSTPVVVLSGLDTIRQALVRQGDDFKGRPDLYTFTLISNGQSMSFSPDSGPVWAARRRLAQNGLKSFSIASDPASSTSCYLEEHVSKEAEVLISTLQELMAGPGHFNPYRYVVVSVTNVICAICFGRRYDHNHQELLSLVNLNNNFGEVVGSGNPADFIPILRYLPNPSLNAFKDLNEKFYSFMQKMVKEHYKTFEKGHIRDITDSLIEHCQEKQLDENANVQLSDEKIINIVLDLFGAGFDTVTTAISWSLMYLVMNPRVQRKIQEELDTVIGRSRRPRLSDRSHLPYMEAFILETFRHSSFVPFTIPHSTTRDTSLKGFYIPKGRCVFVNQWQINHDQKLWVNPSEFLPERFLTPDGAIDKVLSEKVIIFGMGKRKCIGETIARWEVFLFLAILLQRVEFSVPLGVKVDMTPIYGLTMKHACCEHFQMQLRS
Put plainly: Inhibition of human recombinant CYP1A1 using 7-ethoxyresorufin as substrate in presence of glucose-6-phosphate, glucose-6-phosphate dehydrogenase and NADPH-generating system incubated for 15 mins by fluorometry. It counts as ADME.

Assay [3] has as its target T3, Cytochrome P450 1A2 (Homo sapiens, UniProt P05177).
T3 sequence (P05177 whole entry): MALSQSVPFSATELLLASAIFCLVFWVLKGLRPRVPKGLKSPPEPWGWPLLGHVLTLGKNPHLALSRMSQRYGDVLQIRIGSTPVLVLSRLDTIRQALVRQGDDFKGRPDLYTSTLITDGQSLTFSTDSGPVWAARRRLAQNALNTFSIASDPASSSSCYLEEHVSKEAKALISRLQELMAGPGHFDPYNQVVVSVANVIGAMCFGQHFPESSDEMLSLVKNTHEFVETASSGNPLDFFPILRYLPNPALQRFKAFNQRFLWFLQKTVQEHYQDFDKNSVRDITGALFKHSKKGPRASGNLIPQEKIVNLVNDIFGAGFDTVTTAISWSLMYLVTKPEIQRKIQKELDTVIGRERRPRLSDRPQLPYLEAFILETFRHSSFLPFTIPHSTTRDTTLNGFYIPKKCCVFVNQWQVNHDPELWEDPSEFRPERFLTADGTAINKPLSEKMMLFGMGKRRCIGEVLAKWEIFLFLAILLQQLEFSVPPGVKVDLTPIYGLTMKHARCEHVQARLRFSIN
Nature of the assay: Inhibition of human recombinant CYP1A2 using 7-ethoxyresorufin as substrate in presence of glucose-6-phosphate, glucose-6-phosphate dehydrogenase and NADPH-generating system incubated for 50 mins by fluorometry. The assay is classed as ADME.

The species named for assay [4] is Homo sapiens. Nature of the assay: Selectivity index, ratio of IC50 for human recombinant CYP1A1 to IC50 for human recombinant CYP1B1 using 7-ethoxyresorufin as substrate in presence of glucose-6-phosphate, glucose-6-phosphate dehydrogenase and NADPH-generating system by fluorometry.
Assay [5] is filed under the species Homo sapiens. Nature of the assay: Selectivity index, ratio of IC50 for human recombinant CYP1A2 to IC50 for human recombinant CYP1B1 using 7-ethoxyresorufin as substrate in presence of glucose-6-phosphate, glucose-6-phosphate dehydrogenase and NADPH-generating system by fluorometry.

As a reminder, the IC50 is the concentration that gives 50% inhibition.

Turning to `O=c1cc(-c2cccc(F)c2)oc2c1ccc1ccccc12`, the IC50 in assay [1] was found to be 2.2 nM; in assay [2], 16.7 nM; in assay [3], 62.2 nM. Further, the Ratio IC50 in assay [4] stood at 7.6; in assay [5], 28.3.

In the case of `O=c1cc(-c2ccccc2Cl)sc2c1ccc1ccccc12`, the values for the IC50 in assay [1], in assay [2] and in assay [3] were 89.7 nM, 45.8 nM and above 1000 nM, respectively. Also, the Ratio IC50 in assay [4] is 0.5; in assay [5], above 11.1.

Take `O=c1cc(-c2cccc(Cl)c2)sc2c1ccc1ccccc12`: the figures for the IC50 in assay [1], in assay [2] and in assay [3] were 40.5 nM, 13.6 nM and 296 nM, respectively. For the same compound, the Ratio IC50 in assay [4] came to 0.3; in assay [5] it was 7.3.

Regarding `O/N=c1\cc(-c2cccc(Cl)c2)oc2c1ccc1ccccc12`, the IC50 in assay [1] turned out to be 10.4 nM; in assay [2] it was 94.9 nM; in assay [3], 804 nM. Moreover, the Ratio IC50 in assay [4] was 9.1; in assay [5] it was 77.3.

Turning to `CN(C)c1cccc(-c2cc(=O)c3ccc4ccccc4c3o2)c1`, the IC50 came out at 4.1 nM in assay [1], 9.6 nM in assay [2] and 183 nM in assay [3]. In addition, the Ratio IC50 in assay [4] came to 2.3; in assay [5], 44.7.

As for `O=c1cc(-c2ccc(F)cc2)oc2c1ccc1ccccc12`, the IC50 in assay [1] is 2.7 nM; in assay [2], 6.7 nM; in assay [3], 12.1 nM. Besides, the Ratio IC50 in assay [4] was found to be 2.5; in assay [5] it was 4.5.

`Fc1ccc(-c2cc(=S)c3ccc4ccccc4c3o2)cc1`: the half-inhibitory concentration (IC50) in assay [1] came to 13.3 nM; in assay [2], 12.3 nM; in assay [3], 42.8 nM. The values for the Ratio IC50 in assay [4] and in assay [5] were 0.9 and 3.2, respectively.

Consider `COc1cc(Cl)cc(-c2cc(=O)c3ccc4ccccc4c3o2)c1`, for which the IC50 in assay [1] is 3.2 nM; in assay [2], 164 nM; in assay [3] it was above 1000 nM. The Ratio IC50 in assay [4] came to 51.2.

On to `O=c1cc(-c2ccc3ccccc3c2)oc2c1ccc1ccccc12`, for which the IC50 in assay [1] was 48.4 nM; in assay [2], 46.4 nM; in assay [3], above 1000 nM. In addition, the Ratio IC50 in assay [4] was 1; in assay [5], above 20.7.

As for `O=c1cc(-c2ccccc2F)sc2c1ccc1ccccc12`, the results for the IC50 in assay [1], in assay [2] and in assay [3] were 104 nM, 84.6 nM and 582 nM, respectively. Moreover, the results for the Ratio IC50 in assay [4] and in assay [5] were 0.8 and 5.6, respectively.

Turning to `Fc1cccc(-c2cc(=S)c3ccc4ccccc4c3o2)c1`, the values for the IC50 in assay [1], in assay [2] and in assay [3] were 5 nM, 25.1 nM and 134 nM, respectively. Besides, the Ratio IC50 in assay [4] is 5; in assay [5] it was 26.8.

Consider `S=c1cc(-c2ccccc2)oc2c1ccc1ccccc12`, for which the IC50 in assay [1] is 7.8 nM; in assay [2] it was 65.4 nM; in assay [3], 179 nM. For the same compound, the results for the Ratio IC50 in assay [4] and in assay [5] were 8.4 and 22.9, respectively.

As for `O=c1cc(-c2cc(Cl)cc(Cl)c2)oc2c1ccc1ccccc12`, the IC50 in assay [1] was found to be 4.2 nM; in assay [2], 25.5 nM; in assay [3], 157 nM. Besides, the Ratio IC50 in assay [4] was 6.1; in assay [5] it was 37.4.

As for `O/N=c1\cc(-c2ccc(Cl)cc2)oc2c1ccc1ccccc12`, the IC50 amounted to 8 nM in assay [1], 44.4 nM in assay [2] and 75.2 nM in assay [3]. The Ratio IC50 in assay [4] was determined as 5.6; in assay [5], 9.4.

For the compound `O=c1cc(-c2ccccc2Cl)oc2c1ccc1ccccc12`, the results for the IC50 in assay [1], in assay [2] and in assay [3] were 21.6 nM, 228 nM and 113 nM, respectively. For the same compound, the Ratio IC50 in assay [4] was 10.6; in assay [5], 5.2.

On to `O=c1cc(-c2cccc(O)c2)oc2c1ccc1ccccc12`, for which the IC50 is 14.8 nM in assay [1], 53.1 nM in assay [2] and 91.5 nM in assay [3]. Moreover, the Ratio IC50 in assay [4] was found to be 3.6; in assay [5] it was 6.2.

Regarding `S=c1cc(-c2cccc(Cl)c2)oc2c1ccc1ccccc12`, the IC50 in assay [1] stood at 9.4 nM; in assay [2] it was 31.7 nM; in assay [3] it was 304 nM. The Ratio IC50 in assay [4] was found to be 3.4; in assay [5] it was 32.4.

For the compound `O=c1cc(-c2ccccc2F)oc2c1ccc1ccccc12`, the values for the IC50 in assay [1], in assay [2] and in assay [3] were 3.3 nM, 12.2 nM and 23.7 nM, respectively. In addition, the figures for the Ratio IC50 in assay [4] and in assay [5] were 3.7 and 7.2, respectively.

As for `O=c1cc(-c2ccc(Cl)cc2)sc2c1ccc1ccccc12`, the IC50 in assay [1] is 51.9 nM; in assay [2], 9 nM; in assay [3] it was 212 nM. The figures for the Ratio IC50 in assay [4] and in assay [5] were 0.2 and 4, respectively.

Take `COc1cccc(-c2cc(=O)c3ccc4ccccc4c3o2)c1`: the values for the IC50 in assay [1], in assay [2] and in assay [3] were 3.8 nM, 35.8 nM and 178 nM, respectively. The Ratio IC50 stood at 9.4 in assay [4] and 46.8 in assay [5].

As to `O=c1cc(-c2cccnc2)oc2c1ccc1ccccc12`, the values for the IC50 in assay [1], in assay [2] and in assay [3] were 6.2 nM, 25.3 nM and 23.2 nM, respectively. Further, the Ratio IC50 in assay [4] was found to be 4.1; in assay [5], 3.7.

Turning to `O=c1cc(-c2ccccn2)oc2c1ccc1ccccc12`, the IC50 in assay [1] amounted to 3.5 nM; in assay [2], 37.9 nM; in assay [3], 25.1 nM. Besides, the Ratio IC50 was 10.8 in assay [4] and 7.2 in assay [5].

As to `O=c1cc(-c2ccccc2)sc2c1ccc1ccccc12`, the figures for the IC50 in assay [1], in assay [2] and in assay [3] were 57 nM, 32.6 nM and above 1000 nM, respectively. Also, the figures for the Ratio IC50 in assay [4] and in assay [5] were 0.6 and above 17.5, respectively.

With `CN1CCN(c2cccc(-c3cc(=O)c4ccc5ccccc5c4o3)c2)CC1`, the IC50 was 24.6 nM in assay [1], 34.6 nM in assay [2] and 762 nM in assay [3]. The Ratio IC50 came out at 1.4 in assay [4] and 31 in assay [5].

Consider `O=c1cc(-c2ccc(Cl)cc2)oc2c1ccc1ccccc12`, for which the values for the IC50 in assay [1], in assay [2] and in assay [3] were 4.2 nM, 4.3 nM and 10.6 nM, respectively. The Ratio IC50 in assay [4] was found to be 1; in assay [5] it was 2.5.

Consider `O=C1C=C(c2ccccc2)S(=O)(=O)c2c1ccc1ccccc21`, for which the figures for the IC50 in assay [1], in assay [2] and in assay [3] were 223 nM, 129 nM and 170 nM, respectively. The Ratio IC50 in assay [4] is 0.6; in assay [5], 0.8.

As to `COc1cccc(-c2cc(=S)c3ccc4ccccc4c3o2)c1`, the IC50 in assay [1] is 9.1 nM; in assay [2] it was 72.8 nM; in assay [3], 305 nM. The Ratio IC50 stood at 8 in assay [4] and 33.5 in assay [5].

`COc1ccc(-c2cc(=O)c3ccc4ccccc4c3o2)cc1`: the IC50 was determined as 7.3 nM in assay [1], 30.9 nM in assay [2] and 98.2 nM in assay [3]. Moreover, the Ratio IC50 in assay [4] was found to be 4.2; in assay [5], 13.5.
